Results reported in patent US11447495B2, “Substituted benzo[f]imidazo[1,5-a][1,4]diazepines as GABA(a) receptor modulators” (priority 2016, dated 2022).

Legend:
[1] = Airway hyperresponsiveness (sRaw) to methacholine in ovalbumin asthma model; assay type: in vivo, ova s/c BALB/c mice; details: oral gavage, 100 mg/kg twice daily for 5 days, methacholine challenge
Description: Compounds described herein may reduce airway hyperresponsiveness in animal models of asthma. Therefore, mice may be sensitized three times with intra-peritoneal (i.p.) injections of 2 mg/kg/d of ovalbumin (Ova) emulsified in […] on days 0, 7 and 14 in a total volume of 100 μL. In addition, mice may be challenged intra-nasally (i.n.) with 1 mg/kg/d Ova for 5 days from days 23-27. Control mice may be sensitized with Ova and challenged with saline. The airway hyperresponsiveness measurements may be carried out with DSI's Buxco® FinePointe Non-Invasive Airway Mechanics (NAM) instrument consisting of a nasal chamber in combination with the thoracic chamber that allows the computation of specific airway resistance (sRaw). Treated conscious, spontaneously breathing Ova S/C mice may be exposed to aerosolized phosphate buffered saline (PBS) (for the baseline measurement) or methacholine (1.5625-12.5 mg/mL) for 1 minute and readings (sRaw) may be taken and averaged for 3 minutes after each nebulization.
Drug treatment protocol: Sterile solutions of compounds were prepared in 2% hydroxypropyl methylcellulose solution (Sigma-Aldrich, St. Louis, Mo.) and 2.5% polyethylene glycol (Sigma Aldrich, St. Louis, Mo.) for oral administration in a biological safety cabinet. A fine suspension was obtained by grinding the mixture with a mortar and pestle. Drugs were administered individually at 100 mg/kg by oral gavage (200 ul) with 20G gavage needles (Kent Scientific Corporation, Torrington Conn.) to groups of ova s/c BALB/c twice daily for 5 days during the ova challenge period. Mice received a single p.o. dose of the compounds just before airway parameter measurements. Compounds for i.p. injection were prepared in 10% DMSO, 40% propylene glycol, and 50% PBS and given as 100 ul injection. Mice were monitored daily after drug administration. Assessment of Airway hyper-responsiveness: Airway hyper-responsiveness to methacholine in conscious, spontaneously breathing animals was measured by DSI's Buxco® FinePointe Non-Invasive Airway Mechanics (NAM) instrument. Before measurements were taken, mice were acclimated to the chambers 15 minutes daily for 5 days. In addition, an ovalbumin sensitization and challenge protocol consists of randomized male BALB/c mice that were sensitized three times with intra-peritoneal (i.p.) injections of 2 mg/kg/d of ovalbumin (Ova) (Sigma-Aldrich, St. Louis, Mo.) emulsified in 2 mg of Alum (Imject Alum; Thermo Scientific, Pierce, Rockford, Ill.) on days 0, 7 and 14 in a total volume of 100 μL. The mice were then challenged intra-nasally (i.n.) with 1 mg/kg/d Ova for 5 days from days 23-27. Control mice were sensitized with Ova and challenged with saline. The chambers were also calibrated each time before data collection. Briefly, the nasal chamber in combination with the thoracic chamber allows the computation of specific airway resistance (sRaw). The FinePointe software computes specific airway resistance (sRaw) with all other ventilatory parameters derived by the NAM analyzer. Mice were exposed to aerosolized PBS (for the baseline measurement) or methacholine (1.5625-12.5 mg/mL) for 1 minute and readings were taken and averaged for 3 minutes after each nebulization. Data obtained were presented as sRaw versus the methacholine concentration (mg/mL) used to generate the aerosol. FIG. 5A-5F show compound effects on airway hyperresponsiveness. Specific airway resistance (sRaw) was measured at increasing dosages of methacholine by a DSI's Buxco FinePointe non-invasive airway mechanics instrument. Ova s/c BALB/c mice were administered all compounds via oral gavage, 100 mg/kg twice daily for 5 days. Data represent mean±SEM from 10 mice in each group. *, **, and *** indicate p<0.05, p<0.01, p<0.001 significance, respectively, compared to vehicle treated ova s/c BALB/c mice.

mucin = experiment: Mucin production in airway epithelium, morphometric quantification; assay type: in vivo, Balb/c mice; details: 100 mg/kg twice for five days
Description: Pharmacodynamic effects of compounds in respect to mucus production were investigated after the AHR measurement by harvesting the lungs of treated and non-treated Ova S/C mice followed by formalin fixation and paraffin embedding. Sections were prepared from one lobe (including large and small airways) and processed for standard H&E (for general histopathology and inflammation) and PAS (for mucous cell; as cells/mm of basement membrane) staining. FIGS. 10A-10B show compound effects on mucin production: (A) Morphometric quantification of mucin volume density and (B) representative images of mucin (red) in the airway epithelium (green) with periodic acid fluorescent Schiff's stain. Balb/c mice were administered compounds at 100 mg/kg twice for five days. Data represent mean±SEM from 5-7 mice in each group. Scale bar represents 100 μm.

[2] = Pharmacokinetic analysis in blood, lungs and brain; details: mouse, 25 mg/kg oral gavage
[3] = Microsomal stability, human liver microsomes; assay type: in vitro ADME; details: 10 μM compound
Description: The metabolic stability of compounds in vivo can be estimated with the stability of compounds in the presence of liver microsomes. Therefore, 4 μL of 1 mM DMSO solution of test compound at a final concentration of 10 μM were preincubated at 37° C. for 5 minutes on a digital heating shaking dry bath (Fischer scientific, Pittsburgh, Pa.) in a mixture containing 282 μL of water, 80 μL of phosphate buffer (0.5 M, pH 7.4) 20 μL of NADPH Regenerating System Solution A (BD Bioscience, San Jose, Calif.) and 4 μL of NADPH Regenerating System Solution B (BD Bioscience, San Jose, Calif.) in a total volume of 391.2 μL. Following preincubation, the reaction was initiated by addition of 8.8 μL of either human liver microsomes (BD Gentest, San Jose, Calif.) or mouse liver microsomes (Life technologies, Rockford, Ill.) at a protein concentration of 0.5 mg/mL. Aliquots of 50 μL were taken at time intervals of 0 (without microsomes), 10, 20, 30, 40, 50 and 60 minutes. Each aliquot was added to 100 μL of cold acetonitrile solution containing 1 μM of verapamil HCL as internal standard. This was followed by sonication for 10 seconds and centrifugation at 10,000 rpm for 5 minutes. 100 μL of the supernatant was transferred into Spin-X HPLC filter tubes (Corning Incorporated, NY) and centrifuged at 13,000 rpm for 5 minutes. The filtrate was diluted 100-fold and subsequently analyzed by LC-MS/MS with Shimadzu LCMS 8040, (Shimadzu Scientific Instruments, Columbia, Md.). The ratio of the peak areas of the internal standard and test compound was calculated for every time point and the natural log of the ratio were plotted against time to determine the linear slope (k). The metabolic rate (k*C0/C), half-life (0.693/k), and […] (V*k) were calculated, where k is the slope, C0 is the initial concentration of test compound, C is the concentration of microsomes, and V is the volume of incubation in μL per microsomal protein in mg. All experiments were repeated two time in triplicates.

| Structure (SMILES) | airway hyperresponsiveness (sRaw) [1] | production of mucin (mucin) | bioavailability [2] | HLM % remaining after 60 min [3] |
| --- | --- | --- | --- | --- |
| C[C@H]1N=C(c2ccccc2F)c2cc(Br)ccc2-n2cnc(C(=O)O)c21 [GL-II-93, (R)-8-bromo-6-(2-fluorophenyl)-4-methyl-4H-benzo[f]imidazo[1,5-a][1,4]diazepine-3-carboxylic acid] | reduced airway hyperresponsiveness at one or multiple concentrations of methacholine | did not change the production of mucin | excellent bioavailability |  |
| CCOC(=O)c1ncn2c1[C@@H]1CCCN1C(=O)c1cc(O)ccc1-2 [RJ-02-50, ethyl (S)-7-hydroxy-9-oxo-11,12,13,13a-tetrahydro-9H-benzo[e]imidazo[5,1-c]pyrrolo[1,2-a][1,4]diazepine-1-carboxylate] | reduced airway hyperresponsiveness at one or multiple concentrations of methacholine | did not change the production of mucin | excellent bioavailability | 91.7 ± 0.2% |
| O=C1c2cc(O)ccc2-n2cnc(-c3cnco3)c2[C@@H]2CCCN12 [RJ-03-30, (S)-7-hydroxy-1-(oxazol-5-yl)-11,12,13,13a-tetrahydro-9H-benzo[e]imidazo[5,1-c]pyrrolo[1,2-a][1,4]diazepin-9-one] | not able to alleviate airway hyperresponsiveness |  |  | 91.8 ± 0.2% |
| C#Cc1ccc2c(c1)C(c1ccccc1F)=N[C@H](C)c1c(C(=O)O)ncn1-2 [SH-053-2′F-R-CH3-Acid, (R)-8-ethynyl-6-(2-fluorophenyl)-4-methyl-4H-benzo[f]imidazo[1,5-a][1,4]diazepine-3-carboxylic acid] | reduced airway hyperresponsiveness at one or multiple concentrations of methacholine | did not change the production of mucin | excellent bioavailability | 92.0 ± 0.2% |
